From the supplement of paper PMC10307832

What was measured:
Assay in all cases: relative viability (nuclei count vs DMSO), 5 days (fraction); higher = more cells survive
NCI-H322M = system: NCI-H322M
Outline: (§1)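 A single step with final 0.05% Triton X-100, 1% formaldehyde and 1 ug/ml Hoechst fixed the cells and stained nuclei 5 days after treatment. Lung cancer cell lines in 1536-well plates had been treated by pin tool the day after seeding with one drug alone or a fixed anchor-drug dose plus five library-drug doses (not always all listed) in √10 steps, and nuclei were counted on 4× images. Relative viability is the ratio of nuclei in treated wells to nuclei in vehicle wells, taken as the median of duplicate plates.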

201T = system: 201T
Outline: as §1

CAL-12T = system: CAL-12T
Outline: as §1

LCLC-97TM1 = system: LCLC-97TM1
Outline: as §1

NCI-H1395 = system: NCI-H1395
Outline: as §1

NCI-H1437 = system: NCI-H1437
Outline: as §1

NCI-H1793 = system: NCI-H1793
Outline: as §1

BEN = system: BEN
Outline: as §1

LXF-289 = system: LXF-289
Outline: as §1

NCI-H1650 = system: NCI-H1650
Outline: as §1

NCI-H2087 = system: NCI-H2087
Outline: as §1

NCI-H727 = system: NCI-H727
Outline: as §1

HOP-62 = system: HOP-62
Outline: as §1

RERF-LC-KJ = system: RERF-LC-KJ
Outline: as §1

NCI-H1355 = system: NCI-H1355
Outline: as §1

SK-LU-1 = system: SK-LU-1
Outline: as §1

NCI-H3122 = system: NCI-H3122
Outline: as §1

NCI-H2023 = system: NCI-H2023
Outline: as §1

HCC-44 = system: HCC-44
Outline: as §1

NCI-H2405 = system: NCI-H2405
Outline: as §1

NCI-H2228 = system: NCI-H2228
Outline: as §1

NCI-H647 = system: NCI-H647
Outline: as §1

HCC-827 = system: HCC-827
Outline: as §1

## C[C@@H]1CN(CC(=O)Nc2ccc3c(c2)Cc2cccc(-c4cc(=O)cc(N5CCOCC5)o4)c2S3)C[C@H](C)O1 + CC1(C)CCC(c2ccc(Cl)cc2)=C(CN2CCN(c3ccc(C(=O)NS(=O)(=O)c4ccc(N[C@H](CCN5CCOCC5)CSc5ccccc5)c(S(=O)(=O)C(F)(F)F)c4)cc3)CC2)C1 [Navitoclax] (partner 0.5 µM)
NCI-H322M; first compound 0.04 µM
  relative viability: 1.17
NCI-H322M; first compound 0.1265 µM
  relative viability: 1.18
NCI-H322M; first compound 0.4 µM
  relative viability: 1.23
NCI-H322M; first compound 4 µM
  relative viability: 1.12
201T; first compound 0.04 µM
  relative viability: 1.21
201T; first compound 0.1265 µM
  relative viability: 1.2
201T; first compound 0.4 µM
  relative viability: 1.19
201T; first compound 4 µM
  relative viability: 1.14
CAL-12T; first compound 0.04 µM
  relative viability: 1.42
CAL-12T; first compound 0.1265 µM
  relative viability: 1.11
CAL-12T; first compound 0.4 µM
  relative viability: 1.07
CAL-12T; first compound 4 µM
  relative viability: 0.652
LCLC-97TM1; first compound 0.1265 µM
  relative viability: 0.645
LCLC-97TM1; first compound 0.4 µM
  relative viability: 0.279
LCLC-97TM1; first compound 4 µM
  relative viability: 0.318
NCI-H1395; first compound 0.04 µM
  relative viability: 1.16
NCI-H1395; first compound 0.1265 µM
  relative viability: 1.26
NCI-H1395; first compound 0.4 µM
  relative viability: 1.35
NCI-H1395; first compound 4 µM
  relative viability: 1.16
NCI-H1437; first compound 0.04 µM
  relative viability: 1.14
NCI-H1437; first compound 0.1265 µM
  relative viability: 1.1
NCI-H1437; first compound 0.4 µM
  relative viability: 1.13
NCI-H1437; first compound 4 µM
  relative viability: 0.882
NCI-H1793; first compound 0.04 µM
  relative viability: 0.495
NCI-H1793; first compound 0.1265 µM
  relative viability: 0.341
NCI-H1793; first compound 0.4 µM
  relative viability: 0.322
NCI-H1793; first compound 4 µM
  relative viability: 0.377
BEN; first compound 0.04 µM
  relative viability: 0.0641
BEN; first compound 0.1265 µM
  relative viability: 0.0514
BEN; first compound 0.4 µM
  relative viability: 0.0961
BEN; first compound 4 µM
  relative viability: 0.0488
LXF-289; first compound 0.04 µM
  relative viability: 0.941
LXF-289; first compound 0.1265 µM
  relative viability: 0.929
LXF-289; first compound 0.4 µM
  relative viability: 1
LXF-289; first compound 4 µM
  relative viability: 0.913
NCI-H1650; first compound 0.04 µM
  relative viability: 1.25
NCI-H1650; first compound 0.1265 µM
  relative viability: 1.09
NCI-H1650; first compound 0.4 µM
  relative viability: 1.38
NCI-H1650; first compound 4 µM
  relative viability: 0.969
NCI-H2087; first compound 0.04 µM
  relative viability: 0.971
NCI-H2087; first compound 0.1265 µM
  relative viability: 1.1
NCI-H2087; first compound 0.4 µM
  relative viability: 0.909
NCI-H2087; first compound 4 µM
  relative viability: 0.923
NCI-H727; first compound 0.04 µM
  relative viability: 0.482
NCI-H727; first compound 0.1265 µM
  relative viability: 0.494
NCI-H727; first compound 0.4 µM
  relative viability: 0.412
NCI-H727; first compound 4 µM
  relative viability: 0.381
HOP-62; first compound 0.04 µM
  relative viability: 0.879
HOP-62; first compound 0.1265 µM
  relative viability: 0.979
HOP-62; first compound 0.4 µM
  relative viability: 1.14
HOP-62; first compound 4 µM
  relative viability: 1.01
RERF-LC-KJ; first compound 0.04 µM
  relative viability: 0.736
RERF-LC-KJ; first compound 0.1265 µM
  relative viability: 1.12
RERF-LC-KJ; first compound 0.4 µM
  relative viability: 1.16
RERF-LC-KJ; first compound 4 µM
  relative viability: 0.713
NCI-H1355; first compound 0.04 µM
  relative viability: 0.978
NCI-H1355; first compound 0.1265 µM
  relative viability: 0.894
NCI-H1355; first compound 0.4 µM
  relative viability: 0.856
NCI-H1355; first compound 4 µM
  relative viability: 0.899
SK-LU-1; first compound 0.04 µM
  relative viability: 0.761
SK-LU-1; first compound 0.1265 µM
  relative viability: 0.969
SK-LU-1; first compound 0.4 µM
  relative viability: 0.956
SK-LU-1; first compound 4 µM
  relative viability: 0.637
NCI-H3122; first compound 0.04 µM
  relative viability: 1.05
NCI-H3122; first compound 0.1265 µM
  relative viability: 1.03
NCI-H3122; first compound 0.4 µM
  relative viability: 0.965
NCI-H3122; first compound 4 µM
  relative viability: 0.95
NCI-H2023; first compound 0.04 µM
  relative viability: 0.993
NCI-H2023; first compound 0.1265 µM
  relative viability: 0.921
NCI-H2023; first compound 0.4 µM
  relative viability: 0.923
NCI-H2023; first compound 4 µM
  relative viability: 0.796
HCC-44; first compound 0.04 µM
  relative viability: 0.987
HCC-44; first compound 0.1265 µM
  relative viability: 0.894
HCC-44; first compound 0.4 µM
  relative viability: 0.835
HCC-44; first compound 4 µM
  relative viability: 0.943
NCI-H2405; first compound 0.04 µM
  relative viability: 1.02
NCI-H2405; first compound 0.1265 µM
  relative viability: 1.1
NCI-H2405; first compound 0.4 µM
  relative viability: 0.866
NCI-H2405; first compound 4 µM
  relative viability: 0.872
NCI-H2228; first compound 0.04 µM
  relative viability: 1.02
NCI-H2228; first compound 0.1265 µM
  relative viability: 1.11
NCI-H2228; first compound 0.4 µM
  relative viability: 0.639
NCI-H2228; first compound 4 µM
  relative viability: 0.753
NCI-H647; first compound 0.04 µM
  relative viability: 0.989
NCI-H647; first compound 0.1265 µM
  relative viability: 1.09
NCI-H647; first compound 0.4 µM
  relative viability: 1.09
NCI-H647; first compound 4 µM
  relative viability: 0.591
HCC-827; first compound 0.04 µM
  relative viability: 0.931
HCC-827; first compound 0.1265 µM
  relative viability: 0.944
HCC-827; first compound 0.4 µM
  relative viability: 1.04
HCC-827; first compound 4 µM
  relative viability: 1.03

## CC(C)Oc1cc(Nc2nc(N[C@@H](C)c3ccc(F)cn3)ncc2Cl)n[nH]1 [AZ23] + CC1(C)CCC(c2ccc(Cl)cc2)=C(CN2CCN(c3ccc(C(=O)NS(=O)(=O)c4ccc(N[C@H](CCN5CCOCC5)CSc5ccccc5)c(S(=O)(=O)C(F)(F)F)c4)cc3)CC2)C1 [Navitoclax] (partner 0.5 µM)
NCI-H322M; first compound 0.01 µM
  relative viability: 1.24
NCI-H322M; first compound 0.03162 µM
  relative viability: 1.09
NCI-H322M; first compound 0.3162 µM
  relative viability: 1.29
201T; first compound 0.01 µM
  relative viability: 1.23
201T; first compound 0.03162 µM
  relative viability: 1.22
201T; first compound 0.3162 µM
  relative viability: 1.17
CAL-12T; first compound 0.01 µM
  relative viability: 0.61
CAL-12T; first compound 0.03162 µM
  relative viability: 1.28
CAL-12T; first compound 0.3162 µM
  relative viability: 1.17
LCLC-97TM1; first compound 0.01 µM
  relative viability: 0.381
LCLC-97TM1; first compound 0.03162 µM
  relative viability: 0.364
LCLC-97TM1; first compound 0.3162 µM
  relative viability: 0.603
NCI-H1395; first compound 0.03162 µM
  relative viability: 1.12
NCI-H1395; first compound 0.3162 µM
  relative viability: 1.21
NCI-H1437; first compound 0.01 µM
  relative viability: 1.33
NCI-H1437; first compound 0.03162 µM
  relative viability: 1.29
NCI-H1437; first compound 0.3162 µM
  relative viability: 1.13
NCI-H1793; first compound 0.01 µM
  relative viability: 0.425
NCI-H1793; first compound 0.03162 µM
  relative viability: 0.302
NCI-H1793; first compound 0.3162 µM
  relative viability: 0.341
BEN; first compound 0.01 µM
  relative viability: 0.0781
BEN; first compound 0.03162 µM
  relative viability: 0.0578
BEN; first compound 0.3162 µM
  relative viability: 0.0639
LXF-289; first compound 0.01 µM
  relative viability: 1.08
LXF-289; first compound 0.03162 µM
  relative viability: 0.951
LXF-289; first compound 0.3162 µM
  relative viability: 0.888
NCI-H1650; first compound 0.01 µM
  relative viability: 0.925
NCI-H1650; first compound 0.03162 µM
  relative viability: 1.28
NCI-H1650; first compound 0.3162 µM
  relative viability: 1.05
NCI-H2087; first compound 0.01 µM
  relative viability: 1.14
NCI-H2087; first compound 0.03162 µM
  relative viability: 1.12
NCI-H2087; first compound 0.3162 µM
  relative viability: 0.914
NCI-H727; first compound 0.01 µM
  relative viability: 0.382
NCI-H727; first compound 0.03162 µM
  relative viability: 0.506
NCI-H727; first compound 0.3162 µM
  relative viability: 0.385
HOP-62; first compound 0.01 µM
  relative viability: 0.94
HOP-62; first compound 0.03162 µM
  relative viability: 1.21
HOP-62; first compound 0.3162 µM
  relative viability: 1.18
RERF-LC-KJ; first compound 0.01 µM
  relative viability: 0.719
RERF-LC-KJ; first compound 0.03162 µM
  relative viability: 1.15
RERF-LC-KJ; first compound 0.3162 µM
  relative viability: 0.879
NCI-H1355; first compound 0.01 µM
  relative viability: 0.999
NCI-H1355; first compound 0.03162 µM
  relative viability: 0.896
NCI-H1355; first compound 0.3162 µM
  relative viability: 0.833
SK-LU-1; first compound 0.01 µM
  relative viability: 0.457
SK-LU-1; first compound 0.03162 µM
  relative viability: 1.38
SK-LU-1; first compound 0.3162 µM
  relative viability: 0.858
NCI-H3122; first compound 0.01 µM
  relative viability: 1.11
NCI-H3122; first compound 0.03162 µM
  relative viability: 1.02
NCI-H3122; first compound 0.3162 µM
  relative viability: 1.08
NCI-H2023; first compound 0.03162 µM
  relative viability: 1.1
NCI-H2023; first compound 0.3162 µM
  relative viability: 1.05
HCC-44; first compound 0.01 µM
  relative viability: 1.31
HCC-44; first compound 0.03162 µM
  relative viability: 1
HCC-44; first compound 0.3162 µM
  relative viability: 0.927
NCI-H2405; first compound 0.01 µM
  relative viability: 0.8
NCI-H2405; first compound 0.03162 µM
  relative viability: 0.915
NCI-H2405; first compound 0.3162 µM
  relative viability: 0.781
NCI-H2228; first compound 0.01 µM
  relative viability: 0.848
NCI-H2228; first compound 0.03162 µM
  relative viability: 0.963
NCI-H2228; first compound 0.3162 µM
  relative viability: 0.709
NCI-H647; first compound 0.01 µM
  relative viability: 1.46
NCI-H647; first compound 0.03162 µM
  relative viability: 1.51
NCI-H647; first compound 0.3162 µM
  relative viability: 1.24
HCC-827; first compound 0.01 µM
  relative viability: 1
HCC-827; first compound 0.03162 µM
  relative viability: 1.04
HCC-827; first compound 0.3162 µM
  relative viability: 0.991
